Data reported in PubChem BioAssay AID179 (DTP/NCI, 2004).
Active and inactive are the calls of the source.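 Rule for the calls: active = compounds giving half or more protection of infected cells from virus-caused growth loss, again on retest; inactive = the rest.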 Where a SMILES comes first, the peptide text is derived from it. Side-chain parts run from the residue outwards. The star is where a group is joined. Cbz = O=C(OCc1ccccc1)*; Boc = CC(C)(C)OC(=O)*

System: CEM cells HIV-1 protection, formazan growth assay
Assay: NCI AIDS Antiviral Assay
Conditions: for IC50: measured here: growth of uninfected CEM cells
Outline: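 Protection of CEM cells against HIV-1 was scored from cell growth (soluble formazan) across five concentrations, with parallel uninfected cells. Lack of protection may reflect toxicity.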

Structure (SMILES)	EC50	IC50	outcome
CC(O)c1ccc(C(O)/C(=N\NC(=O)c2ccncc2)c2nc3ccc([N+](=O)[O-])cc3[nH]c2=O)cc1 (stereo not drawn)	> 74.1 µM	60.3 µM	–
CCS[C@]1(C)C(=O)c2ccccc2C(=O)[C@@]1(C)O	–	–	inactive
NC(=O)CNC(=O)[C@@H]1CC(OCCC(=O)O)CN1C(=O)C1CCCN1C(=O)OCc1ccccc1 (stereo partly drawn)	> 200 µM	> 200 µM	–
c1ccc(SCCCC(Sc2ccccc2)Sc2ccccc2)cc1	–	–	inactive
C=C(Cc1ccc2c(c1)OCO2)C(=C)Cc1ccc(O)cc1O	> 200 µM	55 µM	–
C/C(O)=C(/C=NC(=S)c1ccncc1)C(=O)Nc1ccccc1	> 200 µM	> 200 µM	–
O=C1c2ccccc2C(=O)N1C/C=N/NS(=O)(=O)c1cccc([N+](=O)[O-])c1	> 646 µM	> 646 µM	–
CN1CCC2(CC1)N=C1CCN(C)CC1S2 (stereo not drawn)	> 457 µM	87.1 µM	–
COc1cc(OC)cc(C2=NNc3n[nH]c(=S)n3N2)c1	> 123 µM	> 123 µM	–
CCCCCCCCCCCCC/C=C/[C@H]1[C@@H](C(=O)OC)N1S(=O)c1ccc(C)cc1 (stereo partly drawn)	> 200 µM	74.1 µM	–
CSc1nc2c(c(=O)n1C)N=C(c1ccc([N+](=O)[O-])cc1)CC(c1ccccc1)N2 (stereo not drawn)	> 200 µM	155 µM	–
CC1=Nc2ccccc2N=C(c2c(O)c3c(ccc4ccccc43)oc2=O)C1	> 200 µM	20 µM	–
FC(F)(F)c1ccccc1C=NC12CC3CC(CC(C3)C1)C2	> 30.9 µM	> 30.9 µM	–
Cc1cc(=O)[nH]c(NNC(C#N)c2c(O)ccc3ccccc23)n1 (stereo not drawn)	> 16.2 µM	1.07 µM	–
C=C1C(=O)O[C@H](c2ccoc2)C[C@@H]1[C@@]1(C)CCCC2(C)C(=O)OCC21 (stereo partly drawn)	> 145 µM	95.5 µM	–
CC(=O)OCc1cn(S(=O)(=O)c2ccc(C)cc2)cn1	> 200 µM	24 µM	–
CC(C)(C)OC(=O)NC(CCCCNC(=O)CNC(=O)OCc1ccccc1)C(=O)NC(CCCCNC(=O)CNC(=O)OCc1ccccc1)C(=O)NC(CCCCNC(=O)CNC(=O)OCc1ccccc1)C(=O)NC(CCCCNC(=O)CNC(=O)OCc1ccccc1)C(=O)O (stereo not drawn) (Boc-K([Gly-Cbz])K([Gly-Cbz])K([Gly-Cbz])K([Gly-Cbz])-OH; configuration not given here)	72.4 µM	> 100 µM	–
Oc1cc2c(cc1C(c1cc3c(cc1O)OCO3)c1cc3c(cc1O)OCO3)OCO2	> 117 µM	22.4 µM	–
Cc1cc2c(=O)cc(-c3ccccc3Cl)oc2c(C#N)c1C	> 100 µM	> 100 µM	–
Cc1cc(C)n(-c2ccnc3cc(Cl)ccc23)n1	> 501 µM	214 µM	–
O=[N+]([O-])c1ccc(CSc2nn(Cc3ccc([N+](=O)[O-])cc3)cc3ncnc2-3)cc1	> 200 µM	19.5 µM	–
O=C1C=CC(=O)C2C3c4ccccc4C(c4ccccc43)C12 (stereo not drawn)	> 34.7 µM	> 34.7 µM	–
O=C(Nc1ccc(C2=NCCN2)cc1)Nc1cccc(C(=O)Nc2ccc(C3=NCCN3)cc2)c1	12.9 µM	74.1 µM	–
COC(=O)/C=C(\C(=O)OC)C1C(=O)Oc2c(C)c(=O)c3ccccc3n21 (stereo not drawn)	> 200 µM	60.3 µM	–
COc1cccc2c(SCC(=O)Nc3ccccc3-c3ccccc3NC(=O)CSc3c4ccccc4nc4c(OC)cccc34)c3ccccc3nc12	–	–	inactive
Cc1csc2n(C)c(=O)c3ccccc3[n+]12	191 µM	> 200 µM	–
O=C(OCc1ccccc1)C1(N2CN(C3(C(=O)OCc4ccccc4)CCCC3)CN(C3(C(=O)OCc4ccccc4)CCCC3)C2)CCCC1	> 200 µM	35.5 µM	–

Structure (SMILES)	EC50	IC50	outcome
O=C1c2ccccc2C(=Nc2ccc3ccccc3c2)C1(C1=C(c2ccccc2)C(=Nc2ccc3ccccc3c2)c2ccccc21)c1ccccc1 (stereo not drawn)	> 200 µM	11.7 µM	–
Oc1cc(F)cc2cccnc12	–	–	inactive
CC(=O)OCc1cc(=O)n(C)c2c3c4c(cc12)c(C)cc(=O)n4CO3	> 7.94 µM	1.26 µM	–
CC(C)(C)[Si](C)(C)OCC1OC(n2ccc(=O)[nH]c2=O)C(O[Si](C)(C)C(C)(C)C)C1C/C=[N+](/[O-])CC1OC(n2ccc(=O)[nH]c2=O)C(O[Si](C)(C)C(C)(C)C)C1O[Si](C)(C)C(C)(C)C (stereo not drawn)	> 100 µM	> 100 µM	–
Cc1cc(C)nc(NS(=O)(=O)c2ccc(NNc3c4ccccc4nc4c(C(=O)Nc5ccc(S(=O)(=O)N=C(N)N)cc5)cccc34)cc2)n1	> 200 µM	31.6 µM	–
CCCNC(=O)N(CCC)S(=O)(=O)c1ccc(Cl)cc1	–	–	inactive
COC(=O)Cc1c([C@H]2[C@H](CC(=O)OC)c3ccccc3N2C(C)=O)[nH]c2ccccc12	> 200 µM	97.7 µM	–
CCN(CC)CCN1C(=O)c2cccc3cc(OC)cc(c23)C1=O	> 200 µM	3.47 µM	–
Cc1nn(C)c2c1NC(=O)CS2	–	–	inactive
C/C(=N\NC(=S)Nc1ccccc1)[C@H]1C2CCC(C2)C1C/C=C\CCCC(=O)O (stereo partly drawn)	> 229 µM	107 µM	–
CCOC(=O)C(C)Sc1nnc(COc2ccc(Cl)cc2)n1-c1ccccc1 (stereo not drawn)	> 100 µM	47.9 µM	–
CC(=O)OC1(C#N)CC2OC1C1C2N1C(=O)OC(C)(C)C (stereo not drawn)	> 427 µM	> 427 µM	–
O=C1C2C3C=CC(C2C(=O)N1COP(=O)(O)O)C1C2C(=O)N(COP(=O)(O)O)C(=O)C2C31 (stereo not drawn)	> 100 µM	> 100 µM	–
C[C@H]1C[C@H]2[C@@H]3CCC4=CC(=O)C=C[C@]4(C)C3=CC[C@]2(C)[C@@]1(O)C(=O)CO	102 µM	107 µM	–
O=C1CC(=O)N(CCc2ccccc2)S(=O)(=O)N1CCc1ccccc1	> 200 µM	35.5 µM	–
O=C1/C(=N\O)S(=O)(=O)c2ccccc21	–	–	inactive
CC(C)(C)[Si](C)(C)OCC1OC(n2cnc3c(=O)[nH]c(N)nc32)C(O[Si](C)(C)C(C)(C)C)C1O[Si](C)(C)C(C)(C)C (stereo not drawn)	> 200 µM	4.17 µM	–
CC(=O)Nc1nc(Cl)cc(NCC2(CO)CCC2)n1	> 200 µM	> 200 µM	–
CCOC(=O)c1c(C)[nH]c(=S)c(C#N)c1-c1ccco1	> 200 µM	81.3 µM	–
COC(=O)C1(Cc2ccccc2)Cc2ccc3c(c2C1=O)CCC3 (stereo not drawn)	> 200 µM	> 200 µM	–
CC1CC(=O)c2ccccc2O1 (stereo not drawn)	> 200 µM	> 200 µM	–
CC(=O)C(=Cc1ccc(O)cc1)C(C)=O	> 1230 µM	75.9 µM	–
FC(F)(F)c1cccc(N(c2nc(Cl)nc(Cl)n2)c2nc(Cl)nc(Cl)n2)c1	> 200 µM	> 200 µM	–
C1CSC(=[N+]2CC[N+](=C3SCCS3)CC2)S1	–	–	inactive
CC1=NOC(=O)C1N=Nc1ccc(Br)c(C)c1 (stereo not drawn)	–	–	inactive
CC(=O)NCCCCN(CCCNC(C)=O)C(=O)OCc1ccccc1	> 200 µM	> 200 µM	–
Nc1cnc(Nc2cccc3ccccc23)o1	> 200 µM	> 200 µM	–

Structure (SMILES)	EC50	IC50	outcome
CN1C(=N\S(=O)(=O)c2ccc(Cl)cc2)/C(=N/N=P(c2ccccc2)(c2ccccc2)c2ccccc2)c2ccccc21	> 2.34 µM	> 2.34 µM	–
CC[C@@H]1CC2CN3CCc4c([nH]c5cc(OC)c(OC)cc45)C(C(=O)OC)(C2)C13 (stereo partly drawn)	–	–	inactive
COC(=O)C1=C(N2CCCC2)C2c3ccccc3SC12C(=O)OC (stereo not drawn)	5.75 µM	55 µM	–
N#CC(C#N)=c1ccc(=C2N3CCCC3CN2C23CC4CC(CC(C4)C2)C3)cc1 (stereo not drawn)	–	–	inactive
CN1N=C(c2ccccc2)C(C(c2ccccc2[N+](=O)[O-])C2C(=O)N(C)N=C2c2ccccc2)C1=O (stereo not drawn)	> 81.3 µM	15.8 µM	–
O=C(CC(C(=O)c1ccc(F)cc1)c1ccsc1)c1cccs1 (stereo not drawn)	> 200 µM	> 200 µM	–
CC12CCCCC1=C(F)C(F)(F)S2 (stereo not drawn)	> 200 µM	115 µM	–
c1ccc(C2SCc3nc4ccccc4n32)cc1 (stereo not drawn)	> 141 µM	35.5 µM	–
Nc1nc2c(ncn2C2C=CC(CO)C2)c(=O)[nH]1 (stereo not drawn)	36.3 µM	324 µM	–
O=C(c1ccco1)N(C(=S)OCc1ccccn1)c1ccccc1	> 200 µM	105 µM	–
CCOC(=O)COc1ccc(S(=O)(=O)c2ccc(OCC(=O)OCC)cc2)cc1	> 200 µM	> 200 µM	–
Cc1nnc(N)nc1/C=C\c1cccs1	> 200 µM	5.5 µM	–
CCc1cccc(C)c1NC(=O)CCc1nnc(SC)o1	> 162 µM	> 162 µM	–
O=C1NC(=O)C23CCCCc4cccc(c42)C(=O)C13 (stereo not drawn)	> 372 µM	> 372 µM	–
Nc1ccc(C(=O)Nn2c(-c3ccccc3)nc3ccccc3c2=O)cc1	> 200 µM	> 200 µM	–
COC(=O)[C@@H]1C=C[C@H](OC2OC(COC(C)=O)C(OC(C)=O)C(OC(C)=O)C2OC(C)=O)n2c(=O)c3ccccc3c(=O)n21 (stereo partly drawn)	> 200 µM	10.7 µM	–
C1CN2CCN3CCN4CCN1[P+]243	–	–	inactive
O=C(c1ccco1)N(C(=O)N1CCCCC1)c1ccccc1	> 200 µM	> 200 µM	–
CC(NC(=O)C(NC(=O)OC(C)(C)C)C(C)C)C(=O)N1CCCC1C(=O)NCC(=O)NC(C(=O)NCC(=O)O)C(C)C (stereo not drawn) (Boc-VAPGVG-OH; configuration not given here)	> 200 µM	> 200 µM	–
COc1cc(NC(=O)CC(C)=O)cc2c(C)cc(=O)n(C)c12	> 200 µM	117 µM	–
C[C@H]1O[C@@H](C(C)(C)C)OC(=O)[C@@H]1C(OC(=O)c1ccccc1)c1cccc2ccccc12 (stereo partly drawn)	> 200 µM	83.2 µM	–
COc1ccc(/C=C2\S/C(=N/Nc3nc(-c4ccccc4)cs3)NC2=O)cc1OC	> 200 µM	31.6 µM	–
CCOC(=O)/C(=N\OC)C(O)C(F)(F)F (stereo not drawn)	> 200 µM	> 200 µM	–
Cc1cn([C@@H]2O[C@H](CO[Si](C)(C)C(C)(C)C)[C@]3(O[C@H]3C(=O)NO)[C@H]2O[Si](C)(C)C(C)(C)C)c(=O)[nH]c1=O	> 200 µM	1.17 µM	–
CC(=O)c1c(O)c2c(c(C(C)=O)c1O)OC(C)(C)C=C2	> 9.55 µM	> 9.55 µM	–
COc1cc(N2C(=O)C(=O)C3(CCCCC3)C2=O)cc(OC)c1OC	> 200 µM	> 200 µM	–
